Broadly, the IC50 is the midpoint of a concentration-inhibition curve. In general, inhibition refers to how much of the control response was suppressed.

Like-named read-outs stand apart in the source and are kept apart here.

Data on 16 compounds can be found in US6056942A, “5-HT1A ligands” (John Wyeth & Brother, Ltd., priority 1993, dated 2000).

The target in test [1] is T1, 5-HT1A receptor (Rattus norvegicus, UniProt P19327).
T1 construct: 5-HT1A receptor in rat hippocampal membranes; from tissue; host or cells: rat hippocampal membranes
T1 sequence (P19327 1-422): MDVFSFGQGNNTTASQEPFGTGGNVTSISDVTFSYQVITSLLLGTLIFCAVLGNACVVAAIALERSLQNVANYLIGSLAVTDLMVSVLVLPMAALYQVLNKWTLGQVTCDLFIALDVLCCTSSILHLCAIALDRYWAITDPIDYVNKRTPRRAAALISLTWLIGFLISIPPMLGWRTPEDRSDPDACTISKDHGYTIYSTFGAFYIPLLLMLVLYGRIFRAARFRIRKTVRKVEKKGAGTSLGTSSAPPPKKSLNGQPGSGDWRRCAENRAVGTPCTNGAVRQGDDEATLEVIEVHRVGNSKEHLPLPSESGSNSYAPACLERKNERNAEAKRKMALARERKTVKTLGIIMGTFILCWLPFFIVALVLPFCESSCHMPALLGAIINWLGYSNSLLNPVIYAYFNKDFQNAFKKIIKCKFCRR
Put plainly: Procedure (A): displacement of [^3 H]-8-OH-DPAT from the 5-HT1A receptor in rat hippocampal membranes. The test is classed as binding. The conditions noted are these: [^3 H]-8-OH-DPAT displacement, read-out: IC50 value according to procedure (A).

Test [2] concerns the target D2 (Homo sapiens, UniProt P14416). Put plainly: Procedure (B): affinity for D2 receptor sites. The conditions noted are these: for inhibition at 1 µM: 10^-6 M, read-out: % inhibition of binding at D2. Type of test: binding. The protocol:
The affinity of the compounds for D2 receptor sites is determined by the procedure of P. Seeman et al. J. Neurochem. 1984, 43, 221-235.

For test [3], the target named is T2, 5-HT2A (Rattus norvegicus, UniProt P14842).
T2 construct: from tissue
T2 sequence (P14842 whole entry): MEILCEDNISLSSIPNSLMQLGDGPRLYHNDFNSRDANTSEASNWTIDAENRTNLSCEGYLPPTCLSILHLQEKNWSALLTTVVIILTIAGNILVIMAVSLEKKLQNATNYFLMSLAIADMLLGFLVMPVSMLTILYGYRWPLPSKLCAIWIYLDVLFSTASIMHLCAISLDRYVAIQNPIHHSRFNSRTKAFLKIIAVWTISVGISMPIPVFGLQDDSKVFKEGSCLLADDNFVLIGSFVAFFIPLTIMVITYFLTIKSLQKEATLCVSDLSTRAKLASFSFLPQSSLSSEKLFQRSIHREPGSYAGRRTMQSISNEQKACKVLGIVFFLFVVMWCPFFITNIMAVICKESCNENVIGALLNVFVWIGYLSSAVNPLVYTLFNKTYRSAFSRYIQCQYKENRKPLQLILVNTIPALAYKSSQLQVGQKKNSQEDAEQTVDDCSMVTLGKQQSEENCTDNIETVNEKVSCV
Briefly: Procedure (B): affinity for 5-HT2A sites. The test is classed as binding. Conditions: for inhibition at 1 µM: 10^-6 M, read-out: % inhibition of binding at 5-HT2A. The method, then:
The affinity of the compound for 5-HT2A sites is determined by the procedure of R. A. Lyon et al. Mol. Pharmacol., 1987, 31, 194-199. (The 5-HT2A site was previously known as the 5-HT2 site).
(§1) Preferably the compound should be 50 fold selective.

In test [4] the target is T3, 5-HT1B (Rattus norvegicus, UniProt P28564).
T3 construct: from tissue
T3 sequence (P28564 whole entry): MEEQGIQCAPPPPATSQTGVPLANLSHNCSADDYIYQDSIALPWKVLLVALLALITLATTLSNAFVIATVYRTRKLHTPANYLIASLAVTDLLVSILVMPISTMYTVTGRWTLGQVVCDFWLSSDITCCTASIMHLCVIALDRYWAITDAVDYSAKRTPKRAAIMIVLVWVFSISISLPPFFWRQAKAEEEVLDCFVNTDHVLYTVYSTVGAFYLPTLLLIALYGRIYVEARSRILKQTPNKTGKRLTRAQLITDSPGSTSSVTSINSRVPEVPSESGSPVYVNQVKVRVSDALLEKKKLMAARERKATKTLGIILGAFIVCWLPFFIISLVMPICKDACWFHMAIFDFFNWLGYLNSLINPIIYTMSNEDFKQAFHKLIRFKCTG
Put plainly: Procedure (B): affinity for 5-HT1B sites. Conditions: 10^-6 M; read-out: % inhibition of binding at 5-HT1B. The method, then: (§2) In addition to showing selectivity over the D2, α1 and 5-HT2A sites it is also preferable that the compound is 25 fold selective (preferably 50 fold selective) over one or more of the 5-HT1B, 5-HT2C, 5-HT1D, 5-HT3, α2, β and D1 sites. The affinity for these sites is determined by the following procedures.
5-HT1B : B. J. Alexander et al., Br. J. Pharmac., 1986, 87, P 22.

In test [5] the target is T4, α2 (Rattus norvegicus, UniProt P22909).
T4 construct: from tissue
T4 sequence (P22909 1-465): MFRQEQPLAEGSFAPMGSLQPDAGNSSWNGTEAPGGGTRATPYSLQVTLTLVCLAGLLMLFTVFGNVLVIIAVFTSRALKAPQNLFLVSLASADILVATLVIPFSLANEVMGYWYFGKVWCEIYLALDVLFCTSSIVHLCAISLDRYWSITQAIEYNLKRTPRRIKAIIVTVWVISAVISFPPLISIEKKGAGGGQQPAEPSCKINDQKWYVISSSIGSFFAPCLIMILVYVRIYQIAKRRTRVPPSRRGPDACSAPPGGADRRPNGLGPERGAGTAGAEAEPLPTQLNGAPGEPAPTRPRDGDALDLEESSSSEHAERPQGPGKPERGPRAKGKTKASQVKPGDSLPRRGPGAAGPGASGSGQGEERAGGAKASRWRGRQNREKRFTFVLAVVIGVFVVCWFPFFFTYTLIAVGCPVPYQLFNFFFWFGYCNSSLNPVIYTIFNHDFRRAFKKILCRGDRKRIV
Briefly: Procedure (B): affinity for α2 sites. Conditions: 10^-6 M; read-out: % inhibition of binding at α2. The protocol:
The affinity for these sites is determined by the following procedures. α2 : D. J. Loftus et al. Life Sciences, 1984, 34, 61-69.

The target in test [6] is T5, D1 (Rattus norvegicus, UniProt P18901).
T5 construct: from tissue
T5 sequence (P18901 whole entry): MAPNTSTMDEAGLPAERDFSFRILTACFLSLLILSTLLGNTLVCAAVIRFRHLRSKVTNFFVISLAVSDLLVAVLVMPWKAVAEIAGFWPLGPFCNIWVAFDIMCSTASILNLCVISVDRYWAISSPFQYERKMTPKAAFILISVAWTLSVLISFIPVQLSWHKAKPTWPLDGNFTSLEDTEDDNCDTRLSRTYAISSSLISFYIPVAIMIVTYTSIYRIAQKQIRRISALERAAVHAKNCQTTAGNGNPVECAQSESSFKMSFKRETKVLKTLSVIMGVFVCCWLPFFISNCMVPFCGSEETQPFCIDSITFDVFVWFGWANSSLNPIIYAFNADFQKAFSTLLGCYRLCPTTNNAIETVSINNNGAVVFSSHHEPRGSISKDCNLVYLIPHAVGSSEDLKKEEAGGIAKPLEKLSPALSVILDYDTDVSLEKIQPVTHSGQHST
Briefly: Procedure (B): affinity for D1 sites. The conditions noted are these: 10^-6 M; read-out: % inhibition of binding at D1. The protocol: The affinity for these sites is determined by the following procedures. D1 : V Billard et al. Life Sciences. 1984, 35, 1885-1893.

Test [7] deals with α1. Put plainly: Procedure (B): affinity for α1 sites. The test is classed as binding. The method, then:
The affinity of the compound for al sites is determined by the procedure of A. L. Morrow, et al. Mol. Pharmacol. 1986, 29, 321.
as §1

Test [8] concerns 5-HT2C. Put plainly: Procedure (B): affinity for 5-HT2C (previously 5-HT1C) sites. The conditions noted are these: 10^-6 M. Type of test: binding. The method, then: as §2
5-HT2C : B. J. Alexander et al., Br. J. Pharmac., 1986, 87, P 22. (The 5-HT2C site was previously known as the 5-HT1C site).

The test system of test [9] is 5-HT1D. Put plainly: Procedure (B): affinity for 5-HT1D sites. Type of test: binding. The method, then:
The affinity for these sites is determined by the following procedures. […] C. Waeber et al., Naunyn-Schmniedebergs Arch. Pharmacol. 1988, 337, 595-601.

The subject of test [10] is β. Put plainly: Procedure (B): affinity for β sites. Type of test: binding. Conditions: 10^-6 M. The protocol: The affinity for these sites is determined by the following procedures. β: L. T. Williams and R. J. Lefkowitz (1987) Receptor binding studies in adrenergic pharmacology, Raven Press, New York.
Test [11] addresses T6, presynaptic 5-HT1A receptors (Rattus norvegicus, UniProt P19327).
T6 construct: 5-HT release in the hippocampus using in vivo microdialysis; from tissue; host or cells: brain of the living animal
T6 sequence (P19327 1-422): T1 sequence (P19327 1-422)
Briefly: Procedure (C)(b): 5-HT release in the hippocampus using in vivo microdialysis. The conditions noted are these: 1 mg/kg s.c. The source says:
(§3) The activation of presynaptic 5-HT1A receptors results in the inhibition of serotonin neurones which can be quantified in two ways:
Routledge, J. Gurling, I. K. Wright and C.

Test [12] addresses T7, 5-HT1A binding site (Rattus norvegicus, UniProt P19327).
T7 sequence (P19327 1-422): T1 sequence (P19327 1-422)
Briefly: biochemical.

For test [13], the target named is T6, presynaptic 5-HT1A receptors. Put plainly: Procedure (C)(a): electrophysiological monitoring of firing rate of serotonin neurones. The test is classed as in vivo. Conditions: iv, read-out: ID50 (neuronal firing rate). The method, then:
as §3
(a) Electrophysiologically monitoring the activity of the neurones to measure their firing rate by the method of H. J. Haigler and G. K. Aghajanian, J. Pharmacol. Exp. Therap., 1974, 188, 688. An intravenous ID50 dose is determined. The agonist.

Test [14] deals with T7, 5-HT1A binding site.
Setting [15] is: concentration of 10 MM (so in the source).
Where [16] appears, read: concentration not clearly stated ("as were").

Sequence of D2 (P14416 whole entry): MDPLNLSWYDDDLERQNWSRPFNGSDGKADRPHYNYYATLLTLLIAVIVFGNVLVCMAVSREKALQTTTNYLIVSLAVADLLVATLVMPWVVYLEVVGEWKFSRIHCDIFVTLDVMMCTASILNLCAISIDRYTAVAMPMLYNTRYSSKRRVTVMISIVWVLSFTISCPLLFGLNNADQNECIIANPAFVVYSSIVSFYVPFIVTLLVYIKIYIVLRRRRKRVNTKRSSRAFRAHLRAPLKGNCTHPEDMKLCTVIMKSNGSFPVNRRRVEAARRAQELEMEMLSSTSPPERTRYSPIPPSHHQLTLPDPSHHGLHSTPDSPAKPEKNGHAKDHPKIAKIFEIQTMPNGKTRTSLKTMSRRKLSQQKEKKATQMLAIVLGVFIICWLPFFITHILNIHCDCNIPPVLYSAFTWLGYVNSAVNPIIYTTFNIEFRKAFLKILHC

In the case of `COc1ccccc1N1CCN(CC(C(=O)NC(C)(C)C)c2ccccc2)CC1` (racemic) [racemate, N-tert-butyl-3-[4-(2-methoxyphenyl)piperazinyl]-2-phenylpropanamide], the half-maximal inhibitory concentration (IC50) in [1] was found to be 0.034 µM. The inhibition at 1 µM in test [2] was determined as 14%; in [3], 37%; in test [4], 27%; in test [5] it was 10%; in [6] it was 20%.
`COc1ccccc1N1CCN(CC(C(=O)NC(C)(C)C)c2ccccc2)CC1` (single isomer, unassigned; (+)) [(+)-enantiomer, N-tert-butyl-3-[4-(2-methoxyphenyl)piperazinyl]-2-phenylpropanamide]: the half-maximal inhibitory concentration (IC50) in test [1] was found to be 0.0155 µM. The inhibition at 1 µM in test [2] amounted to 20%; in test [3], 61%; in test [4], 22%; in test [5], 11%; in test [6] it was 22%.
As to `COc1ccccc1N1CCN(CC[C@@H](C(=O)N2CCCCCC2)c2ccccc2)CC1` [(c)], the half-inhibitory concentration (IC50) turned out to be 0.0003 µM in [1]; 0.277 µM in test [2] (procedure (B)); 0.053 µM in test [7]; 0.106 µM in test [3] (procedure (B)); 2.24 µM in test [9] (procedure (B)). In addition, the inhibition at 1 µM in [4] is less than 50%; in test [5], 53%; in [6] it was less than 50%. Further, in test [8], the “% inhibition of binding at 5-HT2C (5-HT1C)” value is recorded as less than 50%. For the same compound, the “% inhibition of binding at β” value in test [10] is recorded as less than 50%. In [11], the “effect of pretreatment on 8-OH-DPAT-induced decrease in 5-HT release” value is “completely blocked the 8-OH-DPAT-induced decrease in 5-HT release”. Further, the “effect on 5-HT release / extracellular levels of 5-HT in the hippocampus” value in [11] is “no significant effect on extracellular levels of 5-HT in the hippocampus”.
With `NCCc1c[nH]c2ccc(C(N)=O)cc12` [Compound 5-CT], the IC50 in test [12] was in the range of 0.01 to 0.1 µM.
Turning to `CCCN(CCC)C1CCc2cccc(O)c2C1` (centres unmarked) [Compound 8-OH-DPAT], the ED50 in test [13] was determined as 1.9 µg/kg.
`COc1ccccc1N1CCN(CCN(C(=O)C2CCCCC2)c2ccccn2)CC1` [Compound (a), N-(2-(1-(4-(2-methoxyphenyl)piperazinyl))ethyl)-N-(2-pyridinyl)cyclohexanecarboxamide]: the inhibition at 1 µM in test [2], in test [3], in test [4], in test [5] and in test [6] was less than 50% in each case. Besides, the “% inhibition of binding at 5-HT2C (5-HT1C)” value in test [8] is recorded as less than 50%. Moreover, in test [9] (10^-6 M), the “% inhibition of binding at 5-HT1D” value is given as less than 50%. In test [10], the “% inhibition of binding at β” value is recorded as less than 50%.
As to `CNC[C@H](O)c1cccc(O)c1` [L-phenylephrine], the “displacement of hippocampal [^3 H]WAY-100635 binding” value (shortened to “displacement of hippocampal”) in test [14] (setting [15]) is given as “ineffective”.
With `COc1ccccc1N1CCN(CCCCN2C(=O)c3ccccc3C2=O)CC1` [NAN 190], the IC50 in test [12] was in the range of 0.01 to 0.1 µM.
Still for that read-out and setting: in the case of `COC(=O)c1cc2c(N3CCN(CCCCN4C(=O)c5ccccc5S4(=O)=O)CC3)cccc2[nH]1` [SDZ-216525] it was 0.005 µM.
Take `O=C1CN=C(c2ccccc2Cl)c2cc([N+](=O)[O-])ccc2N1` [clonazepam]: the “displacement of hippocampal” value in test [14] (setting [16]) is “ineffective”.
With `NCCc1ccc(O)c(O)c1` [dopamine], in [14] (setting [15]), the “displacement of hippocampal” value is given as “ineffective”.
Turning to `COCCCC/C(=N\OCCN)c1ccc(C(F)(F)F)cc1` [fluvoxarnine], the “activity against [^3 H]WAY-100635 binding” value in [14] (micromolar concentrations) was “inactive”.
As for `CN(C)CCCN1c2ccccc2CCc2ccccc21` [imipramine], in test [14] (setting [16]), the “displacement of hippocampal” value is “ineffective”.
Take `CC(C)NCC(O)c1ccc(O)c(O)c1` (centres unmarked) [isoprenaline]: the “displacement of hippocampal” value in test [14] (setting [15]) is “ineffective”.
Turning to `CSc1ccc2c(c1)C(N1CCN(C)CC1)Cc1ccccc1S2` (centres unmarked) [methiothepin], the half-maximal inhibitory concentration (IC50) in test [12] was in the range of 0.01 to 0.1 µM.
Regarding `NC[C@H](O)c1ccc(O)c(O)c1` [noradrenaline], in test [14] (setting [15]), the “displacement of hippocampal” value is listed as “ineffective”.
